Literature values as cited in US4127529A, “Novel eicosapeptides, intermediates therefor and pharmaceutical compositions and methods employing said eicosapeptides” (priority 1977, dated 1978).

Key:
[1] = injected directly into the brain of the rat
[2] = system: brain opiate receptor sites; conditions: natural peptide

## H-Tyr-Gly-Gly-Phe-Met-OH [methionine enkephalin]
[1]
  analgesic activity: only weak analgesic agent of short duration
[2]
  binding to partially purified brain opiate receptor sites: binds stereo-specifically
